Structures are written as SMILES. *1 amine or outer side, *2 acyl side, *3 side chain or, on linkers, in order; H or OH if unused. Where a SMILES comes first, the peptide text is derived from it. Bridges are numbered along the chain shown (N, C = ends). Roman numbers before positions name the chains, in order. The star is where a group is joined. FITC = O=C1OC2(c3ccc(O)cc3Oc3cc(O)ccc32)c2ccc(NC(=S)*)cc21; X1 = O=C(CCc1cn(CC(=O)[*:2])nn1)[*:1]

The experiment has as its target ubiquitin (Ub) (Homo sapiens, UniProt P0CG47). As to the kind of experiment: Fluorescence polarization. The experiment is classed as binding. The note with it: comparison with native UIM-1 peptide 12. (In general: Polarisation of emitted light reports the rotation of a fluorescent probe.)

For `CC[C@H](C)[C@H](NC(=O)[C@H](C)NC(=O)[C@@H](NC(=O)[C@H](CCC(=O)O)NC(=O)[C@@H](NC(=O)[C@H](CCC(=O)O)NC(=O)[C@H](CC(C)C)NC(=O)[C@H](CCC(=O)O)NC(=O)[C@H](CCC(=O)O)NC(=O)[C@@H](NC(=O)[C@H](CCC(=O)O)NC(=O)[C@H](CCC(N)=O)NC(=O)[C@H](CCC(=O)O)NC(=O)CCc1cn(CC(=O)N[C@@H](CCCCN)C(=O)N[C@@H](CCC(N)=O)C(=O)N[C@@H](CCCCN)C(=O)N[C@H](C(=O)N[C@@H](C)C(=O)N[C@@H](C)C(=O)N[C@@H](CC(C)C)C(=O)N[C@@H](CCCCN)C(=O)N[C@@H](CCCCNC(=S)Nc2ccc3c(c2)C(=O)OC32c3ccc(O)cc3Oc3cc(O)ccc32)C(=O)N[C@@H](CCCCN)C(=O)N[C@H](C(=O)N[C@@H](C)C(=O)N[C@@H](C)C(=O)N[C@@H](CC(C)C)C(=O)N[C@@H](CCCCN)C(=O)N[C@@H](CCC(N)=O)C(=O)N[C@@H](CCCCN)C(=O)N[C@H](C(=O)N[C@@H](CCC(N)=O)C(=O)NCC(N)=O)[C@@H](C)CC)[C@@H](C)CC)[C@@H](C)CC)nn1)[C@@H](C)CC)[C@@H](C)CC)[C@@H](C)CC)C(=O)N[C@@H](CC(C)C)C(=O)N[C@@H](CC(C)C)C(=O)N[C@@H](CO)C(=O)N[C@@H](CCC(=O)O)C(=O)N[C@H](C(=O)N[C@@H](CCC(=O)O)C(=O)NCC(N)=O)[C@@H](C)CC` [Peptide 10] (I: EQEIEELEIEIAILLSEIEG-NH2 / II: KQKIAALKK(FITC)KIAALKQKIQG-NH2; linker I:N-II:N via X1), the “Ub binding relative to native UIM-1 peptide” value was “binds more strongly than the native UIM-1 peptide”.

Values taken from PMC11385044 (Chemical Science, 2024).
